Results as given in paper PMC6688997 (Nature Communications, 2019).
Where “and” joins values, the source holds several entries; their conditions need not be identical. Equal entries are not always repeated.

Columns and labels:
[1] = Body weight of U-118 MG xenograft mice; assay type: in vivo, mouse; conditions: for Body Weight Change(%): individual animals; for Body Weight Change(%) (average / SD): N 5
[2] = target: T1, ROS (ROS1) (Homo sapiens, UniProt P08922); assay: Kinase assay, ATP Km; assay type: biochemical
T1 construct: purchased Carna Biosciences, Inc. (Kobe, Japan); assay run by the vendor
T1 sequence (P08922 28-2347): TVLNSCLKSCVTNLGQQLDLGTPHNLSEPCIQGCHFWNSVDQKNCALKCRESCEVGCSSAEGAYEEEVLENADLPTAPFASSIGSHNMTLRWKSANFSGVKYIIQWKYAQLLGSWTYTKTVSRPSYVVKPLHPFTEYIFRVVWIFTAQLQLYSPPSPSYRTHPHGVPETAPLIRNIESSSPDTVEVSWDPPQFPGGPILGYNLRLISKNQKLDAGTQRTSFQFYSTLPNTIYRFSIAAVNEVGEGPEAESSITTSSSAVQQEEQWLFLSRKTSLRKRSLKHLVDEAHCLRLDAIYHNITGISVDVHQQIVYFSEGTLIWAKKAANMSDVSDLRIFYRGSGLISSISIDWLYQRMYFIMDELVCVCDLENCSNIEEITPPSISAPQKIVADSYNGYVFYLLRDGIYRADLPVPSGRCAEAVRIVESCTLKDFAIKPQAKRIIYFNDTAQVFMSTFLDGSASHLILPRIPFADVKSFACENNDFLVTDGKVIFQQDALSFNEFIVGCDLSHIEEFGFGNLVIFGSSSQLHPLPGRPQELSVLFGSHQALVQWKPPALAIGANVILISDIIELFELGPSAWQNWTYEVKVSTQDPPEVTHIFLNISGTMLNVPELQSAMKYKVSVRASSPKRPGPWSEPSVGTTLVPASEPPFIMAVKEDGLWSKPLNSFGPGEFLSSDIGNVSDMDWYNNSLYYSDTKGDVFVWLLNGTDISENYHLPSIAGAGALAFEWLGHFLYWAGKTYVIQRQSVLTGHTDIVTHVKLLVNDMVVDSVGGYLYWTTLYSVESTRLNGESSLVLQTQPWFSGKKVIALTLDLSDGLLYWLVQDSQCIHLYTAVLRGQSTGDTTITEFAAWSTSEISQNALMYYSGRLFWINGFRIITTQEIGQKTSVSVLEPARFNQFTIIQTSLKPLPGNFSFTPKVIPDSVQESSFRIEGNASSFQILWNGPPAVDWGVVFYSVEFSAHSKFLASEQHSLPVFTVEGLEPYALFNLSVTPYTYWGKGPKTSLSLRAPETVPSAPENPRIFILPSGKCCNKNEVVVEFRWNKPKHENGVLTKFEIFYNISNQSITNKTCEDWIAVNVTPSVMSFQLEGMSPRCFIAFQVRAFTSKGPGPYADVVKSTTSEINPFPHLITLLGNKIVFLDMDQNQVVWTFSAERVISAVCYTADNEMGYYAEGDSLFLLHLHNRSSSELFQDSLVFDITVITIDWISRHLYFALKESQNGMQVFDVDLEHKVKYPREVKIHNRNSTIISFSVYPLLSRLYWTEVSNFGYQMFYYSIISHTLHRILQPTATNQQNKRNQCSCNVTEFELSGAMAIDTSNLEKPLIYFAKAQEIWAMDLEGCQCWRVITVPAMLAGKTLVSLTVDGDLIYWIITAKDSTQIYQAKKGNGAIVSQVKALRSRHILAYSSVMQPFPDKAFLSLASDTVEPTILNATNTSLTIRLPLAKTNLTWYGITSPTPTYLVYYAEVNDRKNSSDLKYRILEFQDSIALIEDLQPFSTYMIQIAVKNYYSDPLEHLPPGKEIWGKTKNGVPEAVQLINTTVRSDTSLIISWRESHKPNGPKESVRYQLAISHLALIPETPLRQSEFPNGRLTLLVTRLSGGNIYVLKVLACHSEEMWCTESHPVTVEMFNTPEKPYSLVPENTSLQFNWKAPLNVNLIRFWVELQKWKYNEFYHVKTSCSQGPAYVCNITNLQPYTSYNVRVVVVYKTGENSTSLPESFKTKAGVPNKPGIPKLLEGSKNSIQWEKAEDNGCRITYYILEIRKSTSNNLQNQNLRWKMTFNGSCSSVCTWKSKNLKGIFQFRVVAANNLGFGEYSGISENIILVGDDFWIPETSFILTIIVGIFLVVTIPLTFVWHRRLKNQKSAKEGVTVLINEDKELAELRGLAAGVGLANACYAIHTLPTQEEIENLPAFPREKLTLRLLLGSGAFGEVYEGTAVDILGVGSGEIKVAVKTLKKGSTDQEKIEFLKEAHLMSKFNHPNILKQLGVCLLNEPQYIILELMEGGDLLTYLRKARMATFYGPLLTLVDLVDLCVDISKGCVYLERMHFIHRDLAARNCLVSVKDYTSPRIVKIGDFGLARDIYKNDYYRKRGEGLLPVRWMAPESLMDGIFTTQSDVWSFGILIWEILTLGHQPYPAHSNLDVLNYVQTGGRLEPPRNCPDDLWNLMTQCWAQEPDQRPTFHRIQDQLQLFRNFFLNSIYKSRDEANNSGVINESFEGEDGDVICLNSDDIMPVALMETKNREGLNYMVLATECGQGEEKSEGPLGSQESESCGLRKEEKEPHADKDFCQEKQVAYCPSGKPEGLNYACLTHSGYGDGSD

[3] = target: T2, FLT4 (Homo sapiens, UniProt P35916); assay: Kinase assay, ATP Km; assay type: biochemical
T2 construct: purchased Carna Biosciences
T2 sequence (P35916 25-1363): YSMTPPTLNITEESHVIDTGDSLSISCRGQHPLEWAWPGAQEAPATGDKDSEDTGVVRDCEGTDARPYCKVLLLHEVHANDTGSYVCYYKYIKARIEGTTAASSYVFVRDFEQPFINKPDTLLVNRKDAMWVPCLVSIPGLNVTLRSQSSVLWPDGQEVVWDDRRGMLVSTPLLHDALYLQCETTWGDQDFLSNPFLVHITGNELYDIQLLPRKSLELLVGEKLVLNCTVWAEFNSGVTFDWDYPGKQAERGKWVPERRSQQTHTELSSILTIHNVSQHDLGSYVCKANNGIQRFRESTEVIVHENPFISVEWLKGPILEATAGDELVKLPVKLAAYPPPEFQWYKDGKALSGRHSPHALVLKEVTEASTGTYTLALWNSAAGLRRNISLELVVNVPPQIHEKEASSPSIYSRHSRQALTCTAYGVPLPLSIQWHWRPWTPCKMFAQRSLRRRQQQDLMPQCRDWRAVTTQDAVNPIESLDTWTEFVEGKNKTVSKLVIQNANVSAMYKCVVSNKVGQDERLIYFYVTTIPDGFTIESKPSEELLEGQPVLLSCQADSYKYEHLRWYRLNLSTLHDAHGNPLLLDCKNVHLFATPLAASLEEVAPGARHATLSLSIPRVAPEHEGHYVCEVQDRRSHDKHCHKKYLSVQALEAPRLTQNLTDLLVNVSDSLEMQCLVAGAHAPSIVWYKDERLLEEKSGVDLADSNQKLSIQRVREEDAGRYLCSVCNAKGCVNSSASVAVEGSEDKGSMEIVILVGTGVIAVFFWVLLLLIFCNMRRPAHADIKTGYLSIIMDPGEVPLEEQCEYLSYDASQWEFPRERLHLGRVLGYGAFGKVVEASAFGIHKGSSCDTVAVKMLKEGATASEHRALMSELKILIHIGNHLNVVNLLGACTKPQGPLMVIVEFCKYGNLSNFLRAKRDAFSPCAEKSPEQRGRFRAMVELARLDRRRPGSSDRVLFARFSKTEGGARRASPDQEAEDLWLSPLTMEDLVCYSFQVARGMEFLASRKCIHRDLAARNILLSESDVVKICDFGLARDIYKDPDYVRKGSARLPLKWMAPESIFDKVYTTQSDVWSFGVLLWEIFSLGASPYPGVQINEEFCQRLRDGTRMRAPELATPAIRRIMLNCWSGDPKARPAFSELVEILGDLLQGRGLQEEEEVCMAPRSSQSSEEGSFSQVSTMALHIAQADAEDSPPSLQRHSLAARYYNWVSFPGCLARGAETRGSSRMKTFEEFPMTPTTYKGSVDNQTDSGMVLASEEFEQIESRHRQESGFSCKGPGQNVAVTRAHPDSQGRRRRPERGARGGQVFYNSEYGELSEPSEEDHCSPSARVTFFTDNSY

[4] = target: CK1δ (Homo sapiens, UniProt P48730); assay: Kinase assay, ATP Km; assay type: biochemical
CK1δ, sequence (P48730 whole entry): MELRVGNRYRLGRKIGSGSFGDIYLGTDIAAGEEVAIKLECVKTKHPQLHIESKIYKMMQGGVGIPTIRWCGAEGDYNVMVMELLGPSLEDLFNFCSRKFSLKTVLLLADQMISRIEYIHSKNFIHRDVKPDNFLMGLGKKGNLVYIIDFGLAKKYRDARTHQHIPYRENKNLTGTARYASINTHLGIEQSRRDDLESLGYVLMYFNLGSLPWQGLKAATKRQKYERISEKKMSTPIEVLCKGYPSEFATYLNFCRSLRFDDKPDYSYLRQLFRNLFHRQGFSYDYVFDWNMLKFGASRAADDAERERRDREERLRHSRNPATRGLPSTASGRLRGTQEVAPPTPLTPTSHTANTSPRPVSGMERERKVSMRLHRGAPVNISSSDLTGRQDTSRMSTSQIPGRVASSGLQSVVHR

[5] = target: CDK4/CycD3 (Homo sapiens, UniProt P11802); assay: Kinase assay, ATP Km; assay type: biochemical
CDK4/CycD3, sequence (P11802 whole entry): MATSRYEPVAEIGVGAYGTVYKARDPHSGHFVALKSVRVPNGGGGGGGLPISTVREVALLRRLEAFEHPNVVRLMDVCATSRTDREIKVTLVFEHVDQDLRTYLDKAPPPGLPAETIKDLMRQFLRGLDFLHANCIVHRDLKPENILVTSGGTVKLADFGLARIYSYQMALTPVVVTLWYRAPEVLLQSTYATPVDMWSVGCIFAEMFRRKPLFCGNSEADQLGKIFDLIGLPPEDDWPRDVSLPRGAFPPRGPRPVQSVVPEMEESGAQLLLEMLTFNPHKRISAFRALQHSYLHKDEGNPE
CDK4/CycD3, sequence (P30281 whole entry partner): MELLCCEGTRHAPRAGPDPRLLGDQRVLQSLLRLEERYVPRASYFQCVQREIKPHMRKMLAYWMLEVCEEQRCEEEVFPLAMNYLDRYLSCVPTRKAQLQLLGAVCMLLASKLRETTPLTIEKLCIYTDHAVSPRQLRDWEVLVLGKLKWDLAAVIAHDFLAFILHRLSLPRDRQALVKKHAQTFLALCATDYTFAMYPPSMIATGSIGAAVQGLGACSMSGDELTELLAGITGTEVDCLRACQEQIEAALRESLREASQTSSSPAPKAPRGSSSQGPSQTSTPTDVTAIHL

[6] = target: T3, MUSK (Homo sapiens, UniProt O15146); assay: Kinase assay, 1 mM ATP; assay type: biochemical
T3 construct: purchased Carna Biosciences
T3 sequence (O15146 24-869): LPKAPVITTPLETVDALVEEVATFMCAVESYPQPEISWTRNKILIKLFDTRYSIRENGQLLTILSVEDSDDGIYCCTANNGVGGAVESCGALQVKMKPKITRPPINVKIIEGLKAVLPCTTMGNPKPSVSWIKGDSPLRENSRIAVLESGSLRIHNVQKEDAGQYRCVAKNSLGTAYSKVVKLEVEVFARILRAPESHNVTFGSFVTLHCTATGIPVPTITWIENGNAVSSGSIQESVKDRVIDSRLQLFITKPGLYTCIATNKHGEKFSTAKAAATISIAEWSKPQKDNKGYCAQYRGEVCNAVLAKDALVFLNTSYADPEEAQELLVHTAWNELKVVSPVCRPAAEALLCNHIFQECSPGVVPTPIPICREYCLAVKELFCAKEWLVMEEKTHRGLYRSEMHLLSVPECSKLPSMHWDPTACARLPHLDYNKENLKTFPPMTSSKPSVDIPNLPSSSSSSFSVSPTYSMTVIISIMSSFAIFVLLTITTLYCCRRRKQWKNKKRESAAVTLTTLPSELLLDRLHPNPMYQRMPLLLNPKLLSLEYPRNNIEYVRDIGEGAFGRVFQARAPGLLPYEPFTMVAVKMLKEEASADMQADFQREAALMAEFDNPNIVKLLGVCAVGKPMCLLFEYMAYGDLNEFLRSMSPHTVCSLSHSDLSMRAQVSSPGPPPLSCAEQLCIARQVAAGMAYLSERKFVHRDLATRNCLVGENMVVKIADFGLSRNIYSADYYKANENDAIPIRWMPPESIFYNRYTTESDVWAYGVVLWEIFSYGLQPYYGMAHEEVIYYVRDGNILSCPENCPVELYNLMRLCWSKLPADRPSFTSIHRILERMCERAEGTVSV

C[C@@H](N)COc1ccc(-c2cnc3ccc(N[C@H](C)c4cccc(F)c4)nn23)cc1.O=C(O)CCCCC(=O)O [DS-6051b]
Body Weight Change(%) ([1]; 25 mg/kg po, day 10): 0.0% | Body Weight Change(%) ([1]; 25 mg/kg po, day 11): -2.5% and -1.4% and -4.1% and -0.9% and 0.0% | Body Weight Change(%) ([1]; 25 mg/kg po, day 12): -3.5% and 0.0% and -2.7% and -1.4% and 1.9% | Body Weight Change(%) ([1]; 25 mg/kg po, day 13): -4.0% and -0.9% and -3.2% and 2.4% | Body Weight Change(%) ([1]; 25 mg/kg po, day 14): -5.1% and -2.8% and -5.0% and -0.9% and 2.4% | Body Weight Change(%) ([1]; 25 mg/kg po, day 15): -6.1% and -1.4% and -5.0% and 3.8% | Body Weight Change(%) ([1]; 25 mg/kg po, day 16): -9.1% and -0.9% and -6.3% and -2.3% and 4.3% | Body Weight Change(%) ([1]; 25 mg/kg po, day 17): -7.6% and 1.9% and -5.0% and -0.9% and 5.2% | Body Weight Change(%) ([1]; 25 mg/kg po, day 18): -7.6% and 0.5% and -4.5% and -0.9% and 5.7% | Body Weight Change(%) ([1]; 25 mg/kg po, day 19): -8.1% and 1.4% and -2.3% and -1.4% and 6.6% | Body Weight Change(%) ([1]; 25 mg/kg po, day 20): -7.6% and 0.9% and -1.8% and -2.3% and 5.2% | Body Weight Change(%) ([1]; 25 mg/kg po, day 21): -6.6% and 0.0% and -2.3% and -3.6% and 6.2% | Body Weight Change(%) ([1]; 25 mg/kg po, day 22): -6.6% and 2.4% and -2.3% and -2.7% and 4.3% | Body Weight Change(%) ([1]; 25 mg/kg po, day 23): -8.6% and 1.9% and -0.9% and 4.7% | Body Weight Change(%) ([1]; 25 mg/kg po, day 24): -4.5% and 2.8% and -2.3% and 0.9% and 5.2% | Body Weight Change(%) ([1]; 25 mg/kg po, day 25): -3.0% and 3.3% and -1.4% and 3.6% and 6.2% | Body Weight Change(%) ([1]; 25 mg/kg po, day 26): -2.5% and 6.6% and -1.4% and 3.6% and 9.5% | Body Weight Change(%) ([1]; 25 mg/kg po, day 27): -1.5% and 6.6% and -0.5% and 2.7% and 6.2% | Body Weight Change(%) ([1]; 25 mg/kg po, day 28): -0.5% and 5.2% and -0.9% and 3.2% and 7.1% | Body Weight Change(%) (average / SD) ([1]; 25 mg/kg, day 0): 0.0% | Body Weight Change(%) (average / SD) ([1]; 25 mg/kg, day 1): -1.8% | Body Weight Change(%) (average / SD) ([1]; 25 mg/kg, day 2): -1.1% | Body Weight Change(%) (average / SD) ([1]; 25 mg/kg, day 3): -1.3% | Body Weight Change(%) (average / SD) ([1]; 25 mg/kg, day 4): -2.3% | Body Weight Change(%) (average / SD) ([1]; 25 mg/kg, day 5): -2.0% | Body Weight Change(%) (average / SD) ([1]; 25 mg/kg, day 6): -2.9% | Body Weight Change(%) (average / SD) ([1]; 25 mg/kg, day 7): -1.3% | Body Weight Change(%) (average / SD) ([1]; 25 mg/kg, day 8): -1.4% | Body Weight Change(%) (average / SD) ([1]; 25 mg/kg, day 9): -0.8% | Body Weight Change(%) (average / SD) ([1]; 25 mg/kg, day 10): -1.1% | Body Weight Change(%) (average / SD) ([1]; 25 mg/kg, day 11): -1.3% | Body Weight Change(%) (average / SD) ([1]; 25 mg/kg, day 12): -1.0% | Body Weight Change(%) (average / SD) ([1]; 25 mg/kg, day 13): -0.8% | Body Weight Change(%) (average / SD) ([1]; 25 mg/kg, day 14): 0.4% | Body Weight Change(%) (average / SD) ([1]; 25 mg/kg, day 15): 1.7% | Body Weight Change(%) (average / SD) ([1]; 25 mg/kg, day 16): 3.2% | Body Weight Change(%) (average / SD) ([1]; 25 mg/kg, day 17): 2.7% | Body Weight Change(%) (average / SD) ([1]; 25 mg/kg, day 18): 2.8% | Body Weight Change(%) ([1]; 50 mg/kg po, day 10): 0.0% | Body Weight Change(%) ([1]; 50 mg/kg po, day 11): 1.5% | Body Weight Change(%) ([1]; 50 mg/kg po, day 19): 1.5% | Body Weight Change(%) ([1]; 50 mg/kg po, day 20): 2.0% | Body Weight Change(%) ([1]; 50 mg/kg po, day 21): 2.0% | Body Weight Change(%) ([1]; 50 mg/kg po, day 22): 1.0% | Body Weight Change(%) ([1]; 50 mg/kg po, day 23): 2.0% | Body Weight Change(%) ([1]; 50 mg/kg po, day 24): 1.5% | Body Weight Change(%) ([1]; 50 mg/kg po, day 25): 0.0% | Body Weight Change(%) ([1]; 50 mg/kg po, day 26): 3.5% | Body Weight Change(%) ([1]; 50 mg/kg po, day 27): 3.5% | Body Weight Change(%) ([1]; 50 mg/kg po, day 28): 4.5% | Body Weight Change(%) (average / SD) ([1]; 50 mg/kg, day 0): 0.0% | Body Weight Change(%) (average / SD) ([1]; 50 mg/kg, day 1): 0.4% | Body Weight Change(%) (average / SD) ([1]; 50 mg/kg, day 2): 0.4% | Body Weight Change(%) (average / SD) ([1]; 50 mg/kg, day 3): 1.8% | Body Weight Change(%) (average / SD) ([1]; 50 mg/kg, day 4): 0.9% | Body Weight Change(%) (average / SD) ([1]; 50 mg/kg, day 5): 0.9% | Body Weight Change(%) (average / SD) ([1]; 50 mg/kg, day 6): 0.2% | Body Weight Change(%) (average / SD) ([1]; 50 mg/kg, day 7): 2.6% | Body Weight Change(%) (average / SD) ([1]; 50 mg/kg, day 8): 2.8% | Body Weight Change(%) (average / SD) ([1]; 50 mg/kg, day 9): 1.2% | Body Weight Change(%) (average / SD) ([1]; 50 mg/kg, day 10): 1.2% | Body Weight Change(%) (average / SD) ([1]; 50 mg/kg, day 11): 0.8% | Body Weight Change(%) (average / SD) ([1]; 50 mg/kg, day 12): 2.3% | Body Weight Change(%) (average / SD) ([1]; 50 mg/kg, day 13): 2.9% | Body Weight Change(%) (average / SD) ([1]; 50 mg/kg, day 14): 3.9% | Body Weight Change(%) (average / SD) ([1]; 50 mg/kg, day 15): 3.5% | Body Weight Change(%) (average / SD) ([1]; 50 mg/kg, day 16): 4.9% | Body Weight Change(%) (average / SD) ([1]; 50 mg/kg, day 17): 4.4% | Body Weight Change(%) (average / SD) ([1]; 50 mg/kg, day 18): 5.5% | Body Weight Change(%) (average / SD) ([1]; 100 mg/kg, day 0): 0.0% | Body Weight Change(%) (average / SD) ([1]; 100 mg/kg, day 1): -0.7% | Body Weight Change(%) (average / SD) ([1]; 100 mg/kg, day 2): 2.0% | Body Weight Change(%) (average / SD) ([1]; 100 mg/kg, day 3): 2.9% | Body Weight Change(%) (average / SD) ([1]; 100 mg/kg, day 4): 3.6% | Body Weight Change(%) (average / SD) ([1]; 100 mg/kg, day 5): 4.8% | Body Weight Change(%) (average / SD) ([1]; 100 mg/kg, day 6): 3.7% | Body Weight Change(%) (average / SD) ([1]; 100 mg/kg, day 7): 7.0% | Body Weight Change(%) (average / SD) ([1]; 100 mg/kg, day 8): 5.7% | Body Weight Change(%) (average / SD) ([1]; 100 mg/kg, day 9): 5.0% | Body Weight Change(%) (average / SD) ([1]; 100 mg/kg, day 10): 4.2% | Body Weight Change(%) (average / SD) ([1]; 100 mg/kg, day 11): 4.6% | Body Weight Change(%) (average / SD) ([1]; 100 mg/kg, day 12): 5.5% | Body Weight Change(%) (average / SD) ([1]; 100 mg/kg, day 13): 4.1% | Body Weight Change(%) (average / SD) ([1]; 100 mg/kg, day 14): 5.1% | Body Weight Change(%) (average / SD) ([1]; 100 mg/kg, day 15): 7.2% | Body Weight Change(%) (average / SD) ([1]; 100 mg/kg, day 16): 8.9% | Body Weight Change(%) (average / SD) ([1]; 100 mg/kg, day 17): 8.0% | Body Weight Change(%) (average / SD) ([1]; 100 mg/kg, day 18): 7.6% | Body Weight Change(%) (average / SD) ([1]; 200 mg/kg, day 4): 0.8% | Body Weight Change(%) (average / SD) ([1]; 200 mg/kg, day 5): 0.5% | Body Weight Change(%) (average / SD) ([1]; 200 mg/kg, day 6): 1.7% | Body weight loss ([1]; ≥25 mg/kg): without significant body weight loss | inhibition at 0.04 µM [2]: 99.8% | inhibition at 0.04 µM [3]: 6.9% | inhibition at 0.04 µM [4]: 3.5% | inhibition at 0.04 µM [5]: -0.5% | inhibition at 0.2 µM [6]: 33.6%
